Patent publication US7728012B2, “Carboxamide compounds and their use as calpain inhibitors” (Abbott GmbH & Co. KG, priority 2006, dated 2010)

Experiments:
Assay type in all cases: biochemical
[1] = target: T1, calpain-I isolated from human erythrocytes (Homo sapiens, UniProt P07384); test: Calpain I kinetic fluorescence enzyme inhibition assay; conditions: apparent Ki from IC50 by Cheng-Prussoff; average of 2 to 4 dose-effect plots
T1 construct: calpain-I—isolated from human erythrocytes; purchased Calbiochem 208713; host or cells: human erythrocytes (tissue isolate)
T1 sequence (P07384 1-714): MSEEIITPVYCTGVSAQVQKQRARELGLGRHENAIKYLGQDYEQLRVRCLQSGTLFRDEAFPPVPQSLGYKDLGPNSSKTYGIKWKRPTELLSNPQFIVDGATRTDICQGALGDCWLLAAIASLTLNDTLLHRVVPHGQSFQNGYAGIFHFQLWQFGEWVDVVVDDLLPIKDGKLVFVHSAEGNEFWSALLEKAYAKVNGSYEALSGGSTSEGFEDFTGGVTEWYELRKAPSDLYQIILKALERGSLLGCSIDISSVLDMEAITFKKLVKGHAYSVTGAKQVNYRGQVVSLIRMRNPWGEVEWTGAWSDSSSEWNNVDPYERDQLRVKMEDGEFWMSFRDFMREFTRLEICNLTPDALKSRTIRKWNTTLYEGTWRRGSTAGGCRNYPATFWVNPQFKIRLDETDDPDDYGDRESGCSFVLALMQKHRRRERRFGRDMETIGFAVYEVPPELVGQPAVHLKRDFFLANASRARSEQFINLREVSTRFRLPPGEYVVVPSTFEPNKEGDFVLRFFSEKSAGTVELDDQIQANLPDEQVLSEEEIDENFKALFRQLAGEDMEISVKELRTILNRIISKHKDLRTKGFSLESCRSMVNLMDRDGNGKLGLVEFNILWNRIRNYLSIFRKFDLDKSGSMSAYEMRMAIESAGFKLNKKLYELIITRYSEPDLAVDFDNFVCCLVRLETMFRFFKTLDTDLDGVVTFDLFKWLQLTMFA
T1 sequence (P04632 1-268 partner): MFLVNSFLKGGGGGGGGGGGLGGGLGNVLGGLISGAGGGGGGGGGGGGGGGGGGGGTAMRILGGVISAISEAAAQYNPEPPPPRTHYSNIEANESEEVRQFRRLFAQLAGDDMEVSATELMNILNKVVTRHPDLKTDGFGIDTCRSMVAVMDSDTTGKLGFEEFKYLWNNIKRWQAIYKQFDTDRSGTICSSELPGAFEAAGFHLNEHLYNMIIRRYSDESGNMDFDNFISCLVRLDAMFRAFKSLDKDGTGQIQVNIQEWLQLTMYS

[2] = target: T2, cathepsin B isolated from human liver (Homo sapiens, UniProt P07858); test: Cathepsin B kinetic fluorescence enzyme inhibition assay; conditions: selectivity ratio versus calpain I
T2 construct: cathepsin B—isolated from human liver; purchased Calbiochem 219362; host or cells: human liver (tissue isolate)
Summary of the method: (§1)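 cat B 0.25 nM + Z-Phe-Arg-AMC 100 μM; cat L 1 nM + Z-Phe-Arg-AMC 2 μM; cat S 0.5 nM (E. coli-expressed) + Z-Val-Val-Arg-AMC 20 μM. 50 mM MES pH 6.0, 2.5 mM L-Cys, RT. Ex 390/em 460, kinetic; Ki app = Cheng-Prusoff from IC50, mean of 2–4 curves.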

[3] = target: T3, cathepsin L isolated from human liver (Homo sapiens, UniProt P07711); test: Cathepsin L kinetic fluorescence enzyme inhibition assay; conditions: selectivity ratio versus calpain I
T3 construct: cathepsin L—isolated from human liver; purchased Calbiochem 219402; host or cells: human liver (tissue isolate)
T3 sequence (P07711 114-333): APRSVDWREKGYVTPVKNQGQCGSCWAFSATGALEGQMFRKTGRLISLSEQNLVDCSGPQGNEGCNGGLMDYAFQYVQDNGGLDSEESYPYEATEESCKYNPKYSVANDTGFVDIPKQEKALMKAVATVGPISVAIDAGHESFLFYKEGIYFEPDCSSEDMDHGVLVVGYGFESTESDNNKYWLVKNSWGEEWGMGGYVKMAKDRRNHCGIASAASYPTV
Summary of the method: as §1

[4] = target: T4, cathepsin K activated from recombinant human procathepsin K (Homo sapiens, UniProt P43235); test: Cathepsin K kinetic fluorescence enzyme inhibition assay; conditions: selectivity ratio versus calpain I
T4 construct: purchased Calbiochem 342001; host or cells: E. coli
T4 sequence (P43235 115-329): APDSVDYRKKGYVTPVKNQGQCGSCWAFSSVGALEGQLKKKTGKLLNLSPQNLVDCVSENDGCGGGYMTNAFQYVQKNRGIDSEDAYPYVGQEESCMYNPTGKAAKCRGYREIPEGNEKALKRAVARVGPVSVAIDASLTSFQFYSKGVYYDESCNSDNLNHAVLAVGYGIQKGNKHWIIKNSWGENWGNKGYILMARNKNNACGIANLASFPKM

[5] = target: T5, recombinant human cathepsin S (Homo sapiens, UniProt P25774); test: Cathepsin S kinetic fluorescence enzyme inhibition assay; conditions: selectivity ratio versus calpain I
T5 construct: purchased Calbiochem 219343; host or cells: E. coli
T5 sequence (P25774 115-331): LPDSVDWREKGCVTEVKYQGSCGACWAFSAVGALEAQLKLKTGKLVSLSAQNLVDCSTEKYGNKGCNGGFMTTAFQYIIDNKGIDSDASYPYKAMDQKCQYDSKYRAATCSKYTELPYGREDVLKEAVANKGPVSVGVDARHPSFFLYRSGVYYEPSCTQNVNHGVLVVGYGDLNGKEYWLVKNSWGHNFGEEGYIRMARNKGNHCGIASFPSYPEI
Summary of the method: as §1

Row | Ki [1] | Compound | Sel cat. B (Ki(cathepsin B)/Ki(calpain) ratio) [2] | Sel cat. L (Ki(cathepsin L)/Ki(calpain) ratio) [3] | Sel cat. K (Ki(cathepsin K)/Ki(calpain) ratio) [4] | Sel cat. S (Ki(cathepsin S)/Ki(calpain) ratio) [5]
1 | ≤ 40 nM | NC(=O)C(=O)C(Cc1ccccc1)NC(=O)c1cccnc1-n1ccc(-c2cc(Cl)ccc2Cl)n1 (stereo not shown) [Example 112, N-[3-Amino-2,3-dioxo-1-(phenylmethyl)propyl]-2-[3-(2,5-dichlorophenyl)-1H-pyrazol-1-yl]pyridine-3-carboxamide] | ++ (Ki(cathepsin B)/Ki(calpain) ratio of ≧30) | ++ (Ki(cathepsin L)/Ki(calpain) ratio of ≧50) | ++ (Ki(cathepsin K)/Ki(calpain) ratio of ≧30) | ++ (Ki(cathepsin S)/Ki(calpain) ratio of ≧100)
2 | 40 to 100 nM | NC(=O)C(=O)C(Cc1ccc(F)cc1)NC(=O)c1cccnc1-n1ccc(-c2ccc(Cl)cc2Cl)n1 (stereo not shown) [Example 114, N-{-3-Amino-1-[(4-fluorophenyl)methyl]-2,3-dioxopropyl}-2-[3-(2,4-dichlorophenyl)-1H-pyrazol-1-yl]pyridine-3-carboxamide] | ++ (Ki(cathepsin B)/Ki(calpain) ratio of ≧30) | ++ (Ki(cathepsin L)/Ki(calpain) ratio of ≧50) | ++ (Ki(cathepsin K)/Ki(calpain) ratio of ≧30) | ++ (Ki(cathepsin S)/Ki(calpain) ratio of ≧100)
3 | ≤ 40 nM | NC(=O)C(=O)C(Cc1ccccc1)NC(=O)c1cccnc1-n1ccc(-c2cccc(Cl)c2Cl)n1 (stereo not shown) [Example 115, N-[3-Amino-2,3-dioxo-1-(phenylmethyl)propyl]-2-[3-(2,3-dichlorophenyl)-1H-pyrazol-1-yl]pyridine-3-carboxamide] | ++ (Ki(cathepsin B)/Ki(calpain) ratio of ≧30) | ++ (Ki(cathepsin L)/Ki(calpain) ratio of ≧50) | ++ (Ki(cathepsin K)/Ki(calpain) ratio of ≧30) | ++ (Ki(cathepsin S)/Ki(calpain) ratio of ≧100)
4 | ≤ 40 nM | NC(=O)C(=O)C(Cc1ccccc1)NC(=O)c1cccnc1-n1ccc(-c2c(F)cc(F)cc2F)n1 (stereo not shown) [Example 116, N-[3-Amino-2,3-dioxo-1-(phenylmethyl)propyl]-2-[3-(2,4,6-trifluorophenyl)-1H-pyrazol-1-yl]pyridine-3-carboxamide] | ++ (Ki(cathepsin B)/Ki(calpain) ratio of ≧30) | ++ (Ki(cathepsin L)/Ki(calpain) ratio of ≧50) | + (10≦Ki(cathepsin K)/Ki(calpain)<30) | ++ (Ki(cathepsin S)/Ki(calpain) ratio of ≧100)
5 | ≤ 40 nM | COc1ccc(-c2ccn(-c3ncccc3C(=O)NC(Cc3ccccc3)C(=O)C(N)=O)n2)c(OC)c1 (stereo not shown) [Example 117, N-[3-Amino-2,3-dioxo-1-(phenylmethyl)propyl]-2-{3-[2,4-bis(methyloxy)phenyl]-1H-pyrazol-1-yl}pyridine-3-carboxamide] | ++ (Ki(cathepsin B)/Ki(calpain) ratio of ≧30) | ++ (Ki(cathepsin L)/Ki(calpain) ratio of ≧50) | ++ (Ki(cathepsin K)/Ki(calpain) ratio of ≧30) | ++ (Ki(cathepsin S)/Ki(calpain) ratio of ≧100)
6 | ≤ 40 nM | NC(=O)C(=O)C(Cc1ccccc1)NC(=O)c1cccnc1-n1ccc(-c2ccc3c(c2)OC(F)(F)O3)n1 (stereo not shown) [Example 118, N-[3-Amino-2,3-dioxo-1-(phenylmethyl)propyl]-2-[3-(2,2-difluoro-1,3-benzodioxol-5-yl)-1H-pyrazol-1-yl]pyridine-3-carboxamide] | ++ (Ki(cathepsin B)/Ki(calpain) ratio of ≧30) | ++ (Ki(cathepsin L)/Ki(calpain) ratio of ≧50) | + (10≦Ki(cathepsin K)/Ki(calpain)<30) | ++ (Ki(cathepsin S)/Ki(calpain) ratio of ≧100)
7 | ≤ 40 nM | NC(=O)C(=O)C(Cc1ccccc1)NC(=O)c1cccnc1-n1ccc(-c2cccc3c2OC(F)(F)O3)n1 (stereo not shown) [Example 119, N-[3-Amino-2,3-dioxo-1-(phenylmethyl)propyl]-2-[3-(2,2-difluoro-1,3-benzodioxol-4-yl)-1H-pyrazol-1-yl]pyridine-3-carboxamide] | ++ (Ki(cathepsin B)/Ki(calpain) ratio of ≧30) | ++ (Ki(cathepsin L)/Ki(calpain) ratio of ≧50) | ++ (Ki(cathepsin K)/Ki(calpain) ratio of ≧30) | ++ (Ki(cathepsin S)/Ki(calpain) ratio of ≧100)
8 | ≤ 40 nM | NC(=O)C(=O)C(Cc1ccccc1)NC(=O)c1cccnc1-n1ccc(-c2c(F)ccc(Cl)c2Cl)n1 (stereo not shown) [Example 120, N-[3-Amino-2,3-dioxo-1-(phenylmethyl)propyl]-2-[3-(2,3-dichloro-6-fluorophenyl)-1H-pyrazol-1-yl]pyridine-3-carboxamide] | ++ (Ki(cathepsin B)/Ki(calpain) ratio of ≧30) | + (30≦Ki(cathepsin L)/Ki(calpain)<50) | ++ (Ki(cathepsin K)/Ki(calpain) ratio of ≧30) | ++ (Ki(cathepsin S)/Ki(calpain) ratio of ≧100)
9 | ≤ 40 nM | COc1c(C)cc(C)cc1-c1ccn(-c2ncccc2C(=O)NC(Cc2ccccc2)C(=O)C(N)=O)n1 (stereo not shown) [Example 121, N-[3-Amino-2,3-dioxo-1-(phenylmethyl)propyl]-2-{3-[3,5-dimethyl-2-(methyloxy)phenyl]-1H-pyrazol-1-yl}pyridine-3-carboxamide] | ++ (Ki(cathepsin B)/Ki(calpain) ratio of ≧30) | ++ (Ki(cathepsin L)/Ki(calpain) ratio of ≧50) | ++ (Ki(cathepsin K)/Ki(calpain) ratio of ≧30) | ++ (Ki(cathepsin S)/Ki(calpain) ratio of ≧100)
10 | ≤ 40 nM | NC(=O)C(=O)C(Cc1ccc(F)cc1)NC(=O)c1cccnc1-n1ccc(-c2ccccc2)n1 (stereo not shown) [Example 123, N-{3-Amino-1-[(4-fluorophenyl)methyl]-2,3-dioxopropyl}-2-(3-phenyl-1H-pyrazol-1-yl)pyridine-3-carboxamide] | ++ (Ki(cathepsin B)/Ki(calpain) ratio of ≧30) | ++ (Ki(cathepsin L)/Ki(calpain) ratio of ≧50) | ++ (Ki(cathepsin K)/Ki(calpain) ratio of ≧30) | ++ (Ki(cathepsin S)/Ki(calpain) ratio of ≧100)
11 | ≤ 40 nM | NC(=O)C(=O)C(Cc1ccccc1)NC(=O)c1cccnc1-n1ccc(-c2ccccc2OC(F)(F)F)n1 (stereo not shown) [Example 124, N-[3-Amino-2,3-dioxo-1-(phenylmethyl)propyl]-2-(3-{2-[(trifluoromethyl)oxy]phenyl}-1H-pyrazol-1-yl)pyridine-3-carboxamide] | ++ (Ki(cathepsin B)/Ki(calpain) ratio of ≧30) | ++ (Ki(cathepsin L)/Ki(calpain) ratio of ≧50) | ++ (Ki(cathepsin K)/Ki(calpain) ratio of ≧30) | ++ (Ki(cathepsin S)/Ki(calpain) ratio of ≧100)
